Measurements from the supplement of paper PMC8960247.
Counter-ions that a name gives are not always drawn. ± gives the standard error.

Tests used:
[1] = test system: 621-102 (TSC2-deficient); assay: relative viability vs DMSO; higher = less cytotoxic; conditions: serum: 10% FBS, 72 h
[2] = test system: 621-103 (TSC2-rescued); assay: as above; conditions: serum: 10% FBS, 72 h
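Further: immortalized renal angiomyolipoma cells stably carrying empty vector or TSC2, dosed in 384-well plates in DMEM, viability normalized to vehicle-treated wells within each plate.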

SMILES | relative viability ([1]; 0.0001 µM) [%] | relative viability ([1]; 0.001 µM) [%] | relative viability ([1]; 0.01 µM) [%] | relative viability ([1]; 0.1 µM) [%] | relative viability ([1]; 1 µM) [%] | relative viability ([1]; 10 µM) [%] | relative viability ([2]; 0.0001 µM) [%] | relative viability ([2]; 0.001 µM) [%] | relative viability ([2]; 0.01 µM) [%] | relative viability ([2]; 0.1 µM) [%] | relative viability ([2]; 1 µM) [%] | relative viability ([2]; 10 µM) [%]
CC(C)(Cc1ccc2ccccc2c1)NC[C@@H](O)COc1cccc(Cl)c1C#N [NPS-2143] | 83.2 ± 5.7 | 93.6 ± 6.1 | 100 ± 2.8 | 97.6 ± 1.3 | 79.52 ± 0.42 | 1 ± 0.14 | 111 ± 4.1 | 102 ± 2.2 | 107 ± 1.8 | 114 ± 2.6 | 106.7 ± 0.6 | 1.29 ± 0.19
CCNC(=O)c1noc(-c2cc(C(C)C)c(O)cc2O)c1-c1ccc(CN2CCOCC2)cc1 [NVP-AUY922] | 35.4 ± 3.1 | 33 ± 1.4 | 22.2 ± 0.39 | 20.32 ± 0.026 | 23 ± 0.25 | 21.6 ± 1.3 | 17.5 ± 0.57 | 6.795 ± 0.067 | 6.22 ± 0.57 | 5.21 ± 0.31 | 4.92 ± 0.055 | 6.99 ± 0.21
CCNC(=O)c1cc2c(-c3cc(OCCN4CCCC4)c(Cl)cc3Cl)nc(N)nc2s1 [NVP-BEP800] | 97.39 ± 0.18 | 102 ± 6.3 | 107 ± 5.5 | 102 ± 1.2 | 56.1 ± 4 | 19.3 ± 1.1 | 101 ± 2.1 | 99.72 ± 0.67 | 99.48 ± 0.53 | 107 ± 2 | 43.99 ± 0.26 | 4.6 ± 0.3
Fc1cc(-c2cccc3ncc(-c4cnn(C5CCNCC5)c4)nc23)cc(F)c1CN1CCOCC1 [NVP-BSK805 dihydrochloride] | 102 ± 3.5 | 99.9 ± 4 | 101 ± 2.5 | 103 ± 1.4 | 89.2 ± 9.6 | 4.33 ± 1.8 | 88.7 ± 5.9 | 102 ± 1.9 | 111 ± 4.3 | 104 ± 4.5 | 77.1 ± 0.88 | 4.07 ± 1.5
COc1cc(N2CCC(N3CCN(C)CC3)CC2)ccc1Nc1ncc(Cl)c(Nc2ccccc2S(=O)(=O)C(C)C)n1 [NVP-TAE684] | 105.9 ± 0.18 | 105 ± 2.5 | 100.1 ± 0.29 | 97.9 ± 2.6 | 80.8 ± 1.4 | 3.88 ± 1.5 | 98.4 ± 2.6 | 99.6 ± 1.4 | 99.8 ± 2 | 99.27 ± 0.36 | 75.2 ± 3.5 | 1.56 ± 0.21
COc1ccccc1N1CCN(CC(O)COc2cccc3ccccc23)CC1 (stereo unspecified) [Naftopidil Dihydrochloride] | 103 ± 5.6 | 109 ± 1.6 | 108.5 ± 0.88 | 106 ± 1.2 | 105.81 ± 0.046 | 110 ± 5 | 110 ± 0.54 | 97.8 ± 11 | 106.7 ± 0.54 | 106 ± 3.4 | 104 ± 1.7 | 108 ± 4.8
COc1ccccc1N1CCN(CC(O)COc2cccc3ccccc23)CC1 (stereo unspecified) [Naftopidil] | 106 ± 5.7 | 99.4 ± 2.5 | 101.3 ± 0.6 | 106 ± 5 | 104.5 ± 1 | 97.38 ± 0.86 | 114 ± 4.2 | 111.6 ± 0.22 | 112 ± 1.2 | 108 ± 1.9 | 102.2 ± 0.57 | 107 ± 2.7
c1ccc2c(CC3=NCCN3)cccc2c1 [Naphazoline HCl] | 122 ± 2.4 | 109 ± 2.6 | 117 ± 3 | 111 ± 3.6 | 106.3 ± 0.15 | 112 ± 1.5 | 103 ± 2 | 105.1 ± 0.24 | 103 ± 1.7 | 99.2 ± 5.5 | 104 ± 0.12 | 101.3 ± 0.62
OC(CNCC(O)C1CCc2cc(F)ccc2O1)C1CCc2cc(F)ccc2O1 (stereo unspecified) [Nebivolol HCl] | 81.745 ± 0.015 | 103 ± 2.9 | 106 ± 1.1 | 118 ± 7.1 | 106 ± 2.9 | 77.1 ± 11 | 86.6 ± 8.6 | 116.1 ± 0.89 | 114.3 ± 0.92 | 120 ± 2.8 | 108 ± 4.2 | 36.4 ± 5.6
CN(C)C(=O)Oc1cccc([N+](C)(C)C)c1 [Neostigmine bromide (Prostigmin)] | 103 ± 4.6 | 114 ± 3 | 104.2 ± 0.97 | 102 ± 7.2 | 102 ± 6 | 101.3 ± 0.82 | 92.6 ± 3.7 | 93.3 ± 2.9 | 93.6 ± 1.3 | 95.7 ± 2.7 | 93.8 ± 2.1 | 92.44 ± 0.58
CCOc1cc2ncc(C#N)c(Nc3ccc(OCc4ccccn4)c(Cl)c3)c2cc1NC(=O)/C=C/CN(C)C [Neratinib] | 110 ± 1.2 | 103 ± 1.1 | 117.5 ± 0.44 | 103.9 ± 0.36 | 88.058 ± 0.084 | 50.9 ± 0.56 | 101.7 ± 0.83 | 99.12 ± 0.5 | 100.4 ± 0.55 | 96 ± 2.1 | 67.12 ± 0.38 | 41.08 ± 0.095
Cc1cn(-c2cc(NC(=O)c3ccc(C)c(Nc4nccc(-c5cccnc5)n4)c3)cc(C(F)(F)F)c2)cn1 [Nilotinib] | 70 ± 0.81 | 71.8 ± 7.4 | 70.7 ± 6.9 | 96.2 ± 7.2 | 93 ± 6.9 | 18.9 ± 7.6 | 82.55 ± 0.76 | 82.1 ± 1.1 | 89 ± 1.5 | 90.4 ± 1.4 | 84.5 ± 4.6 | 7.52 ± 0.28
COC(=O)C1=C(C)NC(C)=C(C(=O)OCC(C)C)C1c1ccccc1[N+](=O)[O-] (stereo unspecified) [Nisoldipine] | 100 ± 4.6 | 95.6 ± 4.7 | 104.6 ± 0.62 | 106.7 ± 0.045 | 111 ± 2.9 | 65.91 ± 0.65 | 110 ± 5.8 | 109 ± 7.6 | 108 ± 4 | 111 ± 6.1 | 100 ± 2.3 | 67.8 ± 4.5
CNC(=C[N+](=O)[O-])NCCSCc1csc(CN(C)C)n1 [Nizatidine] | 102 ± 3 | 100.7 ± 0.45 | 101 ± 2.1 | 95.8 ± 1.8 | 106 ± 3.8 | 103 ± 1.6 | 102.5 ± 0.9 | 92.2 ± 3.2 | 101 ± 4.2 | 97.2 ± 1.6 | 102 ± 3.1 | 98.5 ± 4.4
CO[C@@H]1[C@@H](OC(N)=O)[C@@H](O)[C@H](Oc2ccc3c(O)c(NC(=O)c4ccc(O)c(CC=C(C)C)c4)c(=O)oc3c2C)OC1(C)C [Novobiocin sodium (Albamycin)] | 97.5 ± 4.2 | 94.9 ± 2.2 | 99 ± 4 | 112 ± 1.2 | 107 ± 6.3 | 105 ± 4.1 | 104 ± 1.3 | 104.4 ± 0.12 | 102 ± 3.3 | 98.6 ± 2.8 | 105 ± 4.4 | 98.5 ± 3.8
COc1cccc2cc(-c3nc([C@H]4CC[C@H](C(=O)O)CC4)n4ncnc(N)c34)[nH]c12 [OSI-027] | 79.6 ± 8.2 | 88.5 ± 5.6 | 91.5 ± 7 | 90 ± 1.8 | 77.9 ± 2.4 | 25.2 ± 0.58 | 105 ± 2.6 | 101.3 ± 0.67 | 100.8 ± 0.85 | 94.6 ± 4.2 | 81.7 ± 4.1 | 32.3 ± 0.85
C#Cc1cccc(Nc2ncnc3cc(OCCOC)c(OCCO)cc23)c1 [OSI-420] | 118 ± 6.5 | 106.9 ± 0.52 | 103 ± 0.19 | 95.9 ± 4 | 115 ± 2.9 | 95.8 ± 1.9 | 102.2 ± 0.8 | 101.12 ± 0.0035 | 106.2 ± 0.97 | 100 ± 1.9 | 101.78 ± 0.034 | 74.8 ± 1.7
O=C(Nc1ccc(OC(F)(F)F)cc1)c1sccc1NCc1ccnc2ccccc12 [OSI-930] | 84 ± 2.4 | 116 ± 2.3 | 114 ± 4.7 | 111.7 ± 0.23 | 112 ± 1.4 | 108 ± 5 | 95.6 ± 0.43 | 106 ± 1.1 | 108 ± 3.1 | 108 ± 1.7 | 103 ± 1.7 | 100.9 ± 0.9
Cc1cc2c(s1)Nc1ccccc1N=C2N1CCN(C)CC1 [Olanzapine (Zyprexa)] | 108 ± 1.3 | 105 ± 3.1 | 110 ± 2.6 | 115 ± 5.1 | 108 ± 1.7 | 105 ± 4.6 | 103 ± 3 | 100.7 ± 0.71 | 102 ± 4 | 104.8 ± 1 | 96.8 ± 2.5 | 95.1 ± 1.2
CN(C)CC/C=C1/c2ccccc2COc2ccc(CC(=O)O)cc21 [Olopatadine HCl (Opatano)] | 114 ± 2.8 | 114 ± 2.6 | 108 ± 1.5 | 113 ± 3.7 | 105 ± 1.6 | 97.2 ± 6.5 | 104 ± 5 | 103 ± 5.9 | 97 ± 4 | 102 ± 1.3 | 98.51 ± 0.44 | 103 ± 4.8
Cc1cc(C(C)(C)C)c(O)c(C)c1CC1=NCCN1 [Oxymetazoline HCl] | 120 ± 4.5 | 116 ± 4.1 | 112 ± 2 | 107 ± 4.2 | 113.2 ± 0.75 | 103 ± 2.8 | 99.9 ± 0.63 | 96.5 ± 1.5 | 99.3 ± 6 | 98.5 ± 5 | 103 ± 4.4 | 98.8 ± 3.1
O=C(O)/C=C/c1ccc(Cn2ccnc2)cc1 [Ozagrel] | 100 ± 3.7 | 108 ± 3.7 | 105 ± 2.5 | 110 ± 5.1 | 102.8 ± 0.53 | 95.1 ± 4.6 | 107 ± 1.8 | 112 ± 1.7 | 98.4 ± 2.8 | 104 ± 3.1 | 106 ± 2.4 | 103 ± 1.1
O=C(Nc1cccnc1)N1CCC(Cc2cccc(Oc3ccc(C(F)(F)F)cn3)c2)CC1 [PF-3845] | 104 ± 3.4 | 103 ± 2.9 | 104 ± 1.5 | 102.11 ± 0.087 | 102 ± 3.6 | 98.8 ± 1.6 | 110 ± 5.4 | 116 ± 8.3 | 112.64 ± 0.013 | 109 ± 4.7 | 116.1 ± 0.73 | 103 ± 1.1
Oc1cccc(-c2nc(N3CCOCC3)c3oc4ncccc4c3n2)c1 [PI-103] | 105 ± 1.1 | 92.1 ± 7.2 | 95.5 ± 3.6 | 103 ± 1.9 | 91.8 ± 3.4 | 37.66 ± 0.19 | 112 ± 1.2 | 95.6 ± 3.2 | 101.2 ± 0.72 | 102.5 ± 0.82 | 83.4 ± 2.7 | 38 ± 0.63
COc1ccc2c3n(c(=NC(=O)c4cccnc4)nc2c1OC)CCN3 [PIK-90] | 85.1 ± 3.9 | 107 ± 4.7 | 110 ± 2.5 | 112 ± 1.5 | 110 ± 1.3 | 96.7 ± 1.5 | 99 ± 1.5 | 99.75 ± 0.35 | 97.73 ± 0.84 | 97.82 ± 0.96 | 97.97 ± 0.66 | 73.4 ± 6.5
CC(=O)Nc1nc(C)c(-c2ccc(Cl)c(S(=O)(=O)NCCO)c2)s1 [PIK-93] | 94.69 ± 0.6 | 106 ± 2.8 | 115 ± 0.89 | 112 ± 3.2 | 113.97 ± 0.11 | 82.8 ± 0.53 | 102.7 ± 0.19 | 102 ± 1.3 | 98.7 ± 1.2 | 100.8 ± 1 | 102 ± 1.7 | 74.3 ± 1.8
Cc1ccccc1-n1c(Cn2ncc3c(N)ncnc32)nc2cccc(C)c2c1=O [PIK-293] | 75.5 ± 1.2 | 114 ± 4.8 | 108 ± 1.3 | 118.8 ± 0.73 | 111.4 ± 0.27 | 108 ± 5.3 | 99.57 ± 0.92 | 99.6 ± 1.1 | 98.74 ± 0.94 | 98.35 ± 0.28 | 98.9 ± 1.9 | 94.1 ± 1.5
CN(C)C1CCN(C(=O)c2ccc(NC(=O)Nc3ccc(-c4nc(N5CCOCC5)nc(N5CCOCC5)n4)cc3)cc2)CC1 [PKI-587] | 52.3 ± 1.3 | 38.71 ± 0.29 | 29.8 ± 0.13 | 22.16 ± 0.12 | 17.8 ± 0.79 | 13.3 ± 0.47 | 72.6 ± 3.4 | 49.4 ± 3 | 44.8 ± 2.2 | 33.8 ± 1.2 | 26.61 ± 0.072 | 19.91 ± 0.074
